These results are taken from US10266535B2, “Inhibitor of FLT3 kinase and use thereof” (HEFEI INSTITUTES OF PHYSICAL SCIENCE, CHINESE ACADEMY OF …, priority 2015, dated 2019).

Molecules are shown by their SMILES. Where two headings read alike, the source gives them in different places.

The subject of test [1] is TEL-BaF3-FLT3/ITD (stably expressing FLT3/ITD mutant activated kinase). Put plainly: Cell proliferation, Cell Titer-Glo, TEL-BaF3-FLT3/ITD. The class given is cell-based, mouse. The settings on record: Mus musculus, 72 h, incubated for 72 hours; read-out: TEL-BaF3-FLT3/ITD IC50. The essentials:
(§1)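 Read-out: luminescence from ATP in live cells (CellTiter-Glo), taken as viable cell number. Cell lines were built in-house.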

The test system of another test is pro-B cell BaF3. The test can be described thus: Cell proliferation, Cell Titer-Glo, BaF3. Format: cell-based. Particulars: Mus musculus, incubated for 72 hours. In outline: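 Viable cells quantified by CellTiter-Glo ATP luminescence; BaF3 lines generated in-house.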
In test [2] the test system is U937 (expressing wild-type FLT3 gene). Put plainly: Cell proliferation, Cell Titer-Glo, U937. Format: cell-based, human. The settings on record: Homo sapiens, U-937, 72 h. In outline:
as §1

The test system of test [3] is TEL-BaF3-BLK (stably expressing BLK kinase). Put plainly: Cell proliferation, Cell Titer-Glo, TEL-BaF3-BLK. Format: cell-based. The settings on record: Mus musculus; incubated for 72 hours. The essentials:
as §1

In test [4] the test system is TEL-BaF3-EGFR (stably expressing EGFR kinase). The test can be described thus: Cell proliferation, Cell Titer-Glo, TEL-BaF3-EGFR. Format: cell-based. Particulars: Mus musculus; incubated for 72 hours. On the procedure:
(§2) The above cell lines were constructed by our laboratory.
(§3) The number of viable cells was determined by quantification of ATP in living cells using the Cell Titer-Glo® (Promega, USA) chemiluminescence cell viability assay kit.

For test [5], the system named is MOLM-14 (expressing FLT3/ITD mutant gene and wild-type FLT3 gene). The test can be described thus: Cell proliferation, Cell Titer-Glo, MOLM-14. Format: cell-based. The settings on record: Homo sapiens. In outline:
as §1

For test [6], the system named is MOLM-13 (expressing FLT3/ITD mutant gene and wild-type FLT3 gene). The test can be described thus: Cell proliferation, Cell Titer-Glo, MOLM-13. Format: cell-based. The settings on record: Homo sapiens. The essentials:
as §1

Test [7] deals with BaF3-FLT3-ITD-F691L (stably expressing FLT3/ITD F691L mutant activated kinase). The test can be described thus: Cell proliferation, Cell Titer-Glo, BaF3-FLT3-ITD-F691L. The class given is cell-based. Particulars: Mus musculus. The protocol:
as §2, §3

The target of the next test is BTK protein kinase (Homo sapiens (Human), UniProt Q06187). Put plainly: In vitro inhibition activity (enzymatic activity), ADP-Glo, BTK. Format: biochemical. Particulars: ATP 10 μM.
For test [8], the system named is TEL-BaF3-BMX (stably expressing BMX kinase). The test can be described thus: Cell proliferation, Cell Titer-Glo, TEL-BaF3-BMX. The class given is cell-based. The settings on record: Mus musculus; incubated for 72 hours. The essentials: as §1
The subject of test [9] is TEL-BaF3-FLT3-D835Y (stably expressing FLT3 D835Y mutant activated kinase). The test can be described thus: Cell proliferation, Cell Titer-Glo, TEL-BaF3-FLT3-D835Y. The settings on record: Mus musculus. The class given is cell-based. In outline:
as §1

The subject of test [10] is BaF3-FLT3-ITD-D835Y (stably expressing FLT3/ITD D835Y mutant activated kinase). Put plainly: Cell proliferation, Cell Titer-Glo, BaF3-FLT3-ITD-D835Y. The class given is cell-based. Particulars: Mus musculus. The protocol: as §2, §3
Test [11] concerns TPR-MET-BaF3 (stably expressing MET kinase). Put plainly: Cell proliferation, Cell Titer-Glo, TPR-MET-BaF3. Format: cell-based. Particulars: Mus musculus; incubated for 72 hours. The essentials:
as §1

Test [12] concerns MV4-11 (expressing FLT3/ITD mutant gene). Put plainly: Cell proliferation, Cell Titer-Glo, MV4-11. The settings on record: Homo sapiens. Format: cell-based. The essentials: as §1
The subject of test [13] is TEL-JAK1-BaF3 (stably expressing JAK1 kinase). Put plainly: Cell proliferation, Cell Titer-Glo, TEL-JAK1-BaF3. The settings on record: Mus musculus; incubated for 72 hours. The class given is cell-based. In outline:
as §1

Test [14] deals with TEL-cKIT-BaF3 (stably expressing cKIT kinase). The test can be described thus: Cell proliferation, Cell Titer-Glo, TEL-cKIT-BaF3. The class given is cell-based. Particulars: Mus musculus; incubated for 72 hours. In outline: as §1
The test system of test [15] is OCI-AML-3 (expressing FLT3 A680V mutant gene). The test can be described thus: Cell proliferation, Cell Titer-Glo, OCI-AML3. The class given is cell-based. The settings on record: Homo sapiens, incubated for 72 hours. In outline:
as §1

Where [16] appears, read: incubated for 72 hours, read-out: U937 IC50.
[17] abbreviates: MOLM-14, incubated for 72 hours, read-out: MOLM-14 IC50.
Setting [18] is: MOLM-13, incubated for 72 hours, read-out: MOLM-13 IC50.
Setting [19] is: incubated for 72 hours, read-out: BaF3-FLT3-ITD-F691L IC50.
The mark [20] stands for this setting: incubated for 72 hours, read-out: TEL-BaF3-FLT3-D835Y IC50.
The mark [21] stands for this setting: incubated for 72 hours, read-out: BaF3-FLT3-ITD-D835Y IC50.
Where [22] appears, read: MV4-11, incubated for 72 hours, read-out: MV4-11 IC50.

Chain of BTK protein kinase (Q06187 whole entry): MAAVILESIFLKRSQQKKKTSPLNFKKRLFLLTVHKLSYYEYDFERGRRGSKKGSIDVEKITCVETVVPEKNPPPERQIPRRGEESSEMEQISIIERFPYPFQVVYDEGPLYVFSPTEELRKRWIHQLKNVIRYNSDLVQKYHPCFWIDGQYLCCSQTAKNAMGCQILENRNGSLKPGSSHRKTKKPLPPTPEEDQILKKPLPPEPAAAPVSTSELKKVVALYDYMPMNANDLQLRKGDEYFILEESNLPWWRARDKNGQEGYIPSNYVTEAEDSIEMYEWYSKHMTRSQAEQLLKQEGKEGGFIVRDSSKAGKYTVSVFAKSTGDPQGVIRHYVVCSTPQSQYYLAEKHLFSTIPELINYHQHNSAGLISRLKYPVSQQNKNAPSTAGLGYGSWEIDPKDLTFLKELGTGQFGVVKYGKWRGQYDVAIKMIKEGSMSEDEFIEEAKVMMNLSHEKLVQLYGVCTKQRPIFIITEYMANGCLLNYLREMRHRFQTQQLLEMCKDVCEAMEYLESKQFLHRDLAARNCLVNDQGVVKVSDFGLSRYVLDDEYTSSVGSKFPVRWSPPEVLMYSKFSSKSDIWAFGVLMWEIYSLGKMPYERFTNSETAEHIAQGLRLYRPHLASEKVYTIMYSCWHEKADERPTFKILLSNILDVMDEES

For the molecule `NC(=O)C(=O)N1CCC[C@@H](n2nc(-c3ccc(Oc4ccccc4)cc3)c3c(N)ncnc32)C1` [Compound 5, (R)-2-(3-(4-amino-(4-phenoxyphenyl)-1H-pyrazolo[3,4-d]pyrimidin-1-yl)piperidin-1-yl)-2-oxamide], the IC50 was 510 nM in [1]; more than 10000 nM with pro-B cell BaF3; 6.4 µM in [2] (setting [16]); 970 nM in test [3]; more than 10000 nM in test [4]; 0.21 µM in test [5] (setting [17]). Moreover, the IC50 was 0.085 µM in test [6] (setting [18]); 0.37 µM in test [7] (setting [19]); 40 nM on BTK protein kinase; 200 nM in test [8]; 0.034 µM in test [9] (setting [20]); 0.32 µM in test [10] (setting [21]). For the same molecule, the IC50 in [11] turned out to be 5700 nM; in [12] (setting [22]) it was 0.12 µM; in test [13], 4000 nM; in test [14] it was 2200 nM.

Turning to `NCC(=O)N1CCC[C@@H](n2nc(-c3ccc(Oc4ccccc4)cc3)c3c(N)ncnc32)C1` [Compound 43, (R)-2-amino-1-(3-(4-amino-(4-phenoxyphenyl)-1H-pyrazolo[3,4-d]pyrimidin-1-yl)piperidin-1-yl)ethanone], the IC50 was found to be 7 nM in test [1]; 3800 nM in the test with pro-B cell BaF3; 7.21 µM in test [2] (setting [16]); 120 nM in test [3]; 0.028 µM in [5] (setting [17]); 0.02 µM in [6] (setting [18]). The IC50 in test [7] (setting [19]) was 1.1 µM; against BTK protein kinase, 28 nM; in test [8], 22 nM; in test [15], 5980 nM; in test [10] (setting [21]), 0.41 µM; in test [11], 2770 nM. In test [12] (setting [22]), the IC50 amounted to 0.022 µM.

Turning to `Nc1ncnc2c1c(-c1ccc(Oc3ccccc3)cc1)nn2[C@@H]1CCCN(C(=O)[C@H](N)Cc2c[nH]cn2)C1` [Compound 7, (R)-2-amino-1-((R)-3-(4-amino-(4-phenoxyphenyl)-1H-pyrazolo[3,4-d]pyrimidin-1-yl)piperidin-1-yl)-3-(1H-imidazol-4-yl)propan-1-one], the IC50 in test [1] came out at 9 nM; with pro-B cell BaF3, 440 nM; in test [2] (setting [16]), 0.54 µM; in test [3] it was 51 nM; in [4], 1000 nM; in test [5] (setting [17]), 0.023 µM. The IC50 in test [6] (setting [18]) was 0.0012 µM; in test [7] (setting [19]), 0.25 µM; on BTK protein kinase it was 27 nM; in test [8], 330 nM; in [9] (setting [20]), 0.3 µM; in [10] (setting [21]), 0.11 µM. In addition, the IC50 in [11] was 530 nM; in test [12] (setting [22]), 0.01 µM; in test [13] it was 370 nM; in [14], 350 nM.

Consider `CN1CCC(C(=O)N2CCC[C@@H](n3nc(-c4ccc(Oc5ccccc5)cc4)c4c(N)ncnc43)C2)CC1` [Compound 33, (R)-(3-(4-amino-(4-phenoxyphenyl)-1H-pyrazolo[3,4-d]pyrimidin-1-yl)piperidin-1-yl)(1-methylpiperidin-4-yl)methanone], for which the IC50 in [1] is 77 nM; with pro-B cell BaF3, 5000 nM; in [2] (setting [16]) it was more than 10 µM; in test [3], 610 nM; in test [5] (setting [17]), 0.22 µM; in test [6] (setting [18]) it was 0.16 µM. Further, the IC50 was 0.28 µM in test [7] (setting [19]); 421 nM on BTK protein kinase; 70 nM in test [8]; 0.14 µM in test [9] (setting [20]); 5300 nM in [15]; 0.63 µM in test [10] (setting [21]). For the same molecule, the IC50 came out at 1450 nM in test [11], 0.16 µM in test [12] (setting [22]) and 2010 nM in [14].

Turning to `CS(=O)(=O)N1CCC[C@@H](n2nc(-c3ccc(Oc4ccccc4)cc3)c3c(N)ncnc32)C1` [Compound 30, (R)-1-(1-(methylsulfonyl)piperidin-3-yl)-3-(4-phenoxyphenyl)-1H-pyrazolo[3,4-d]pyrimidin-4-amine], the IC50 in test [1] was 48 nM; in the test on pro-B cell BaF3 it was more than 10000 nM; in [2] (setting [16]), more than 10 µM; in test [3], 3500 nM; in test [5] (setting [17]), 0.26 µM; in test [6] (setting [18]), 0.13 µM. Besides, the IC50 was 5.3 µM in [7] (setting [19]); 1830 nM on BTK protein kinase; 140 nM in [8]; 0.65 µM in test [9] (setting [20]); more than 10000 nM in test [15]; 2.5 µM in test [10] (setting [21]). Moreover, the IC50 in [11] stood at 9270 nM; in [12] (setting [22]), 0.17 µM; in [14] it was 4350 nM.

In the case of `CC(C)C[C@@H](N)C(=O)N1CCC[C@@H](n2nc(-c3ccc(Oc4ccccc4)cc3)c3c(N)ncnc32)C1` [Compound 27, (R)-2-amino-1-((R)-3-(4-amino-(4-phenoxyphenyl)-1H-pyrazolo[3,4-d]pyrimidin-1-yl)piperidin-1-yl)-4-methylpentan-1-one], the IC50 came out at 5 nM in test [1]; 1300 nM in the test on pro-B cell BaF3; 4.1 µM in test [2] (setting [16]); 210 nM in test [3]; 990 nM in test [4]; 0.023 µM in [5] (setting [17]). Further, the IC50 is 0.014 µM in [6] (setting [18]); 0.28 µM in test [7] (setting [19]); 688 nM against BTK protein kinase; 340 nM in test [8]; 0.018 µM in test [9] (setting [20]); 0.2 µM in [10] (setting [21]). For the same molecule, the IC50 in test [11] is 1500 nM; in [12] (setting [22]) it was 0.032 µM; in test [13], 2200 nM; in [14], 1600 nM.

For the molecule `CS(=O)(=O)NC1CCC(n2nc(-c3ccc(Oc4ccccc4)cc3)c3c(N)ncnc32)CC1` (stereo not drawn) [Compound 78, N-(4-(4-amino-3-(4-phenoxyphenyl)-1H-pyrazolo[3,4-d]pyrimidin-1-yl)cyclohexyl)methanesulfonamide], the IC50 in the test with pro-B cell BaF3 came to 6000 nM; in [2] (read-out: U937 IC50 [μM], incubated for 72 hours) it was 3.6 µM; in test [3], 4 nM; in test [5] (MOLM-14, 72 h, read-out: MOLM-14 IC50 [μM]) it was 0.11 µM; in test [6] (MOLM-13, 72 h, read-out: MOLM-13 IC50 [μM]) it was 0.019 µM; in [7] (72 h, read-out: BaF3-FLT3-ITD-F691L IC50 [μM]), 0.27 µM. Besides, the IC50 worked out at 38 nM in test [8]; 0.0076 µM in [9] (72 h, read-out: TEL-BaF3-FLT3-D835Y IC50 [μM]); 0.053 µM in test [10] (72 h, read-out: BaF3-FLT3-ITD-D835Y IC50 [μM]); 0.018 µM in test [12] (MV4-11, 72 h, read-out: MV4-11 IC50 [μM]); 320 nM in test [14].

As for `Nc1ncnc2c1c(-c1ccc(Oc3ccccc3)cc1)nn2[C@@H]1CCCN(C(=O)[C@@H](N)Cc2ccc(O)cc2)C1` [Compound 11, (S)-2-amino-1-((R)-3-(4-amino-(4-phenoxyphenyl)-1H-pyrazolo[3,4-d]pyrimidin-1-yl)piperidin-1-yl)-3-(4-hydroxyphenyl)propan-1-one], the IC50 in test [1] turned out to be 48 nM; in the test on pro-B cell BaF3, 960 nM; in test [2] (setting [16]), 3.4 µM; in test [3], 90 nM; in test [4] it was 2200 nM; in test [5] (setting [17]), 0.046 µM. The IC50 in test [6] (setting [18]) turned out to be 0.012 µM; in test [7] (setting [19]), 0.26 µM; in test [8], 440 nM; in [9] (setting [20]) it was 0.02 µM; in [10] (setting [21]), 0.28 µM; in [11] it was 1400 nM. The IC50 stood at 0.022 µM in test [12] (setting [22]), 340 nM in [13] and 830 nM in [14].
